Marks after values point to notes of the source that are not given here.
What was measured:
Assay type in all cases: cell-based
wild-type CqsS = wild-type CqsS (Vibrio cholerae serotype O1, UniProt Q9KM66); conditions: for QS activity (in words): tested up to 50,000 nM; for maximal % response at the maximum concentration tested: at 50,000 nM, with respect to CAI-1 = 100%
CqsS C170A = CqsS C170A (Vibrio cholerae serotype O1, UniProt Q9KM66, C170A); assay: Light-based agonist bioassay with CqsS C170A mutant strain
CqsS C170Y = CqsS C170Y (Vibrio cholerae serotype O1, UniProt Q9KM66, C170Y); assay: Light-based agonist bioassay with CqsS C170Y mutant strain; conditions: at 50,000 nM

CCCCCCCCO [1-octanol]
QS activity (in words) (wild-type CqsS): no QS activity

CCC(O)C(=O)O (stereo not shown) [2-hydroxybutyric acid]
QS activity (in words) (wild-type CqsS): no QS activity

CCCCCCCCCC(=O)[C@@H](O)CC [compound 1, S-3-hydroxytridecan-4-one, reference compound]
% Response (percent maximal bioluminescence) (CqsS C170A; with respect to CAI-1 set at 100%): 100±44%
maximal % response at the maximum concentration tested (CqsS C170Y): 20 ^c %

CCCCCCCCOC(=O)C(O)CC (stereo not shown) [compound 9, Octyl 2-hydroxybutanoate]
maximal % response at the maximum concentration tested (CqsS C170Y): 66 ^c %

CCCCOC(=O)C(O)CC (stereo not shown) [compound 17, Butyl 2-hydroxybutanoate]
maximal % response at the maximum concentration tested (wild-type CqsS): 23 ^c %
QS activity (in words) (wild-type CqsS): nearly complete loss of QS activity

CCCCCCOC(=O)C(O)CC (stereo not shown) [compound 18, Hexyl 2-hydroxybutanoate]
fold less active (higher EC50) than C8-ester-CAI-1 (9) (wild-type CqsS): greater than 4 fold

CCCCCCCOC(=O)C(O)CC (stereo not shown) [compound 19, Heptyl 2-hydroxybutanoate]
fold less active (higher EC50) than C8-ester-CAI-1 (9) (wild-type CqsS): 2 fold

CCCCCCCCCOC(=O)C(O)CC (stereo not shown) [compound 20, Nonyl 2-hydroxybutanoate]
fold more active (lower EC50) than C8-ester-CAI-1 (9) (wild-type CqsS): 2 fold

CCCCCCCCCCOC(=O)C(O)CC (stereo not shown) [compound 21, Decyl 2-hydroxybutanoate]
fold less active (higher EC50) than C8-ester-CAI-1 (9) (wild-type CqsS): greater than 4 fold

CCCCCOCCOC(=O)C(O)CC (stereo not shown) [compound 22, 2-(Pentyloxy)ethyl 2-hydroxybutanoate]
fold less active (higher EC50) than C8-ester-CAI-1 (9) (wild-type CqsS): > 13 fold

CCOCCOCCOC(=O)C(O)CC (stereo not shown) [compound 23, 2-Hydroxy-2-(2-ethoxyethoxy)ethylbutanoate]
maximal % response at the maximum concentration tested (wild-type CqsS): 31 ^c %
QS activity (in words) (wild-type CqsS): only minimal QS activity

CCCCCCOCCOC(=O)C(O)CC (stereo not shown) [compound 24, 2-(Hexyloxy)ethyl 2-hydroxybutanoate]
fold less active (higher EC50) than C8-ester-CAI-1 (9) (wild-type CqsS): > 13 fold

CCCCC/C=C/COC(=O)C(O)CC (stereo not shown) [compound 26, (E)-Oct-2-en-1-yl 2-hydroxybutanoate]
fold more active (lower EC50) than C8-ester-CAI-1 (9) (wild-type CqsS): 3 fold

CCCC/C=C/CCOC(=O)C(O)CC (stereo not shown) [compound 29, (E)-Oct-3-en-1-yl 2-hydroxybutanoate]
fold less active (higher EC50) than C8-ester-CAI-1 (9) (wild-type CqsS): > 4 fold

CCC/C=C/CCCOC(=O)C(O)CC (stereo not shown) [compound 32, (E)-Oct-4-enyl 2-hydroxybutanoate]
fold less active (higher EC50) than C8-ester-CAI-1 (9) (wild-type CqsS): 1.5 fold

CC/C=C/CCCCOC(=O)C(O)CC (stereo not shown) [compound 34, (E)-Oct-5-enyl 2-hydroxybutanoate]
fold less active (higher EC50) than C8-ester-CAI-1 (9) (wild-type CqsS): > 4 fold

CCC(O)C(=O)OCCCCc1ccccc1 (stereo not shown) [compound 37, 4-Phenylbutyl 2-hydroxybutyrate]
maximal % response at the maximum concentration tested (CqsS C170A; at 50,000 nM): 16 ^c %
maximal % response at the maximum concentration tested (CqsS C170Y): 22 ^c %

CCC(O)C(=O)OCCCCCc1ccccc1 (stereo not shown) [compound 38, 5-Phenylpentyl 2-hydroxybutyrate]
maximal % response at the maximum concentration tested (CqsS C170Y): 19 ^c %

CCCCc1ccccc1COC(=O)C(O)CC (stereo not shown) [compound 44, 1-(o-Butyl-phenyl)methyl 2-hydroxybutyrate]
fold less active (higher EC50) than C8-ester-CAI-1 (9) (wild-type CqsS): > 278 fold
QS activity (in words) (wild-type CqsS): very weak responses

CCCCCc1cccc(COC(=O)C(O)CC)c1 (stereo not shown) [compound 46, 1-(m-Pentyl-phenyl)methyl 2-hydroxybutyrate]
fold less active (higher EC50) than C8-ester-CAI-1 (9) (wild-type CqsS): > 9 fold

CCc1ccccc1CCCOC(=O)C(O)CC (stereo not shown) [compound 49, 3-(o-Ethyl-phenyl)propyl 2-hydroxybutyrate]
fold less active (higher EC50) than C8-ester-CAI-1 (9) (wild-type CqsS): > 278 fold
maximal % response at the maximum concentration tested (wild-type CqsS): 28 ^c %
QS activity (in words) (wild-type CqsS): very weak responses

— publication PMC3798069 (Journal of medicinal chemistry, 2012)
